System: NCI-H358 human non-small cell lung cancer cell with KRAS G12C mutation
Assay: Cell Titer-Glo cell viability, NCI-H358 cells (72 h)
Assay type: cell-based
Settings: Homo sapiens, NCI-H358, 72 h, class symbols
Source text: Effect Example 1: Pharmacodynamic Assay 1 (Determination of the efficacy of the compounds of the present disclosure on NCI-H358 human non-small cell lung cancer cell with KRAS G12C mutation)
The following method was used to determine the effect of the compounds of the present disclosure on tumor cell proliferation.
For the KRAS G12C subtype, NCI-H358 non-small cell lung cancer cells with KRAS G12C mutation were used to determine the efficacy of the compounds in inhibiting cancer cell viability. NCI-H358 cells were cultured in a DMEM medium containing 10% fetal bovine serum, 100 U penicillin and […] streptomycin. The cells were cultured in an incubator with 5% CO2 at 37° C. Cancer cell viability was evaluated by determining the content of ATP with Cell Titer-Glo® kit (Luminescent Cell Viability Assay kit, please refer to the manufacturer's instructions for use) and evaluating the inhibition of cell growth.
The experimental method was proceeded in accordance with the steps in the instructions for the kit, and was described briefly as follows. The test compounds were first dissolved in DMSO to prepare stock solutions, and then the stock solutions were subjected to gradient dilution with the culture media of the corresponding cells, thereby preparing test samples. The final concentrations of the compounds were in the range of 30 μM to 0.01 nM. Tumor cells in logarithmic growth phase were seeded into a 96-well cell culture plate at an appropriate density. After the cell culture plate was left overnight in an incubator with 5% CO2 at 37° C., the test compound samples were added thereto and then the cells were further cultured for 72 hours. After the incubation was complete, an appropriate volume of Cell Titer-Glo® reagent was added into each well, and the cells were incubated at 37° C. for 1 to 4 hours. Then, the […] was read on a microplate reader.

SMILES | IC50 [nM]
C=CC(=O)N1CCN(c2c(C#N)c(=O)n(-c3ccccc3C(C)C)c3cc(-c4cc(Cl)ccc4F)c(Cl)cc23)[C@@H](C)C1 [Compound I-37] | 100 to 1000
C=CC(=O)N1CCN(c2c(C#N)c(=O)n(-c3ccccc3C(C)C)c3cc(-c4ccc(Cl)cc4Cl)c(Cl)cc23)[C@@H](C)C1 [Compound I-38] | 100 to 1000
C=CC(=O)N1CCN(c2c(C#N)c(=O)n(-c3ccccc3C(C)C)c3cc(-c4cc(Cl)cc(Cl)c4)c(Cl)cc23)[C@@H](C)C1 [Compound I-39] | 100 to 1000
C=CC(=O)N1CCN(c2c(C#N)c(=O)n(-c3ccccc3C(C)C)c3cc(-c4ccc(C(F)(F)F)nc4)c(Cl)cc23)[C@@H](C)C1 [Compound I-40] | > 1000
C=CC(=O)N1CCN(c2c(C#N)c(=O)n(-c3ccccc3C(C)C)c3cc(-c4cccc(C(C)=O)c4)c(Cl)cc23)[C@@H](C)C1 [Compound I-44] | 100 to 1000
C=CC(=O)N1CCN(c2c(C#N)c(=O)n(-c3ccccc3C(C)C)c3cc(-c4ccccc4C(F)(F)F)c(Cl)cc23)[C@@H](C)C1 [Compound I-46] | > 1000
C=CC(=O)N1CCN(c2c(C#N)c(=O)n(-c3ccccc3C(C)C)c3cc(-c4ccc5c(c4)CC5)c(Cl)cc23)[C@@H](C)C1 [Compound I-47] | 100 to 1000
C=CC(=O)N1CCN(c2c(C#N)c(=O)n(-c3ccccc3C(C)C)c3cc(-c4cc(C#N)ccc4C)c(Cl)cc23)[C@@H](C)C1 [Compound I-49] | 100 to 1000
C=CC(=O)N1CCN(c2c(C#N)c(=O)n(-c3ccccc3C(C)C)c3cc(-c4coc5ccccc45)c(Cl)cc23)[C@@H](C)C1 [Compound I-51] | 100 to 1000
C=CC(=O)N1CCN(c2c(C#N)c(=O)n(-c3ccccc3C(C)C)c3cc(-c4ccnc5[nH]ccc45)c(Cl)cc23)[C@@H](C)C1 [Compound I-52] | 100 to 1000
C=CC(=O)N1CCN(c2c(C#N)c(=O)n(-c3ccccc3C(C)C)c3cc(-c4ccc(C5CC5)cc4)c(Cl)cc23)[C@@H](C)C1 [Compound I-53] | 100 to 1000
C=CC(=O)N1CCN(c2c(C#N)c(=O)n(-c3ccccc3C(C)C)c3cc(-c4cn[nH]c4)c(Cl)cc23)[C@@H](C)C1 [Compound I-54] | 100 to 1000
C=CC(=O)N1CCN(c2c(C#N)c(=O)n(-c3ccccc3C(C)C)c3cc(-c4cccc5ccoc45)c(Cl)cc23)[C@@H](C)C1 [Compound I-55] | 100 to 1000
C=CC(=O)N1CCN(c2c(C#N)c(=O)n(-c3ccccc3C(C)C)c3cc(-c4cnn(CCO)c4)c(Cl)cc23)[C@@H](C)C1 [Compound I-58] | 100 to 1000
C=CC(=O)N1CCN(c2c(C#N)c(=O)n(-c3ccccc3C(C)C)c3cc(-c4cncc(N)c4)c(Cl)cc23)[C@@H](C)C1 [Compound I-59] | > 1000

The remaining lines, values ahead:

IC50 [nM] | SMILES
100 to 1000 | C=CC(=O)N1CCN(c2c(C#N)c(=O)n(-c3ccccc3C(C)C)c3cc(-c4cccc(N)n4)c(Cl)cc23)[C@@H](C)C1 [Compound I-41]
100 to 1000 | C=CC(=O)N1CCN(c2c(C#N)c(=O)n(-c3ccccc3C(C)C)c3cc(-c4ccc(Cl)cc4F)c(Cl)cc23)[C@@H](C)C1 [Compound I-42]
< 100 | C=CC(=O)N1CCN(c2c(C#N)c(=O)n(-c3ccccc3C(C)C)c3cc(-c4cc(Cl)ccc4N)c(Cl)cc23)[C@@H](C)C1 [Compound I-43]
100 to 1000 | C=CC(=O)N1CCN(c2c(C#N)c(=O)n(-c3ccccc3C(C)C)c3cc(-c4ccc(N)cc4F)c(Cl)cc23)[C@@H](C)C1 [Compound I-45]
100 to 1000 | C=CC(=O)N1CCN(c2c(C#N)c(=O)n(-c3ccccc3C(C)C)c3cc(-c4c(C)cccc4C)c(Cl)cc23)[C@@H](C)C1 [Compound I-48]
100 to 1000 | C=CC(=O)N1CCN(c2c(C#N)c(=O)n(-c3ccccc3C(C)C)c3cc(-c4ccc(C#N)cc4C)c(Cl)cc23)[C@@H](C)C1 [Compound I-50]
100 to 1000 | C=CC(=O)N1CCN(c2c(C#N)c(=O)n(-c3ccccc3C(C)C)c3cc(-c4ccc(N)nc4C)c(Cl)cc23)[C@@H](C)C1 [Compound I-56]
< 100 | C=CC(=O)N1CCN(c2c(C#N)c(=O)n(-c3ccccc3C(C)C)c3cc(-c4ccc(Cl)cc4N)c(Cl)cc23)[C@@H](C)C1 [Compound I-57]

From US20220064141A1, “BENZOPYRIDONE HETEROCYCLIC COMPOUND AND USE THEREOF” (BrightGene Bio-Medical Technology Co., Ltd., priority 2019, published 2022)
